How the values were obtained:
[1] = target: T1, M1-type muscarinic cholinergic receptor (Rattus norvegicus, UniProt P08482); experiment: Test for affinity for the M1-type muscarinic cholinergic receptor (displacement of [3H]pirenzepine); type: binding; details: for r = (M2/M1), ratio of the IC50 values (selectivity): M2 IC50 (guinea-pig ileum) / M1 IC50 (rat hippocampus); for IC50: homogenate of rat hippocampus, [3H]PZ 1 nM, 2 h at 4° C., pH 7.40
T1 sequence (P08482 1-460): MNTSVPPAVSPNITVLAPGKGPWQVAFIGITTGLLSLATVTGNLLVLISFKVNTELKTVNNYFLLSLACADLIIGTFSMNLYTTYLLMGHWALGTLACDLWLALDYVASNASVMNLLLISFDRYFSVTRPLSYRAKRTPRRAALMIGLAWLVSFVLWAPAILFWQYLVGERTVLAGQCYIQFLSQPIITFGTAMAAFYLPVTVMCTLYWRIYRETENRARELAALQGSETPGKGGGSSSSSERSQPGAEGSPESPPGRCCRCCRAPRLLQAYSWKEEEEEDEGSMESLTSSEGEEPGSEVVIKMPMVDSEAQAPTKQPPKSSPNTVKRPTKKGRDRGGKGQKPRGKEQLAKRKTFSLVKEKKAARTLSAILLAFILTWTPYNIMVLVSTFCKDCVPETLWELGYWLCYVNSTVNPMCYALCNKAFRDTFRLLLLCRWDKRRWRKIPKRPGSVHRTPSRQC
Method: (A) Test for Affinity for the M1 -Type Muscarinic Cholinergic Receptor
The interaction of the molecules with M1 -type muscarinic receptors was studied by in vitro measurement, on a homogenate of rat hippocampus, of the displacement of tritiated pirenzepine ([^3 H]PZ) from its specific binding sites. Aliquots (10 μl) of a 5% (w/v) homogenate of rat hippocampus in an Na2 HPO4 buffer (50 mM, pH 7.40) are incubated for 2 h at 4° C. in the presence of [^3 H]PZ (76 Ci/nmol; final concentration: 1 nM) and increasing concentrations of products to be studied. The final volume is 2 ml. The reaction is stopped by centrifugation for 10 min at 50,000×g. After decantation and washing of the residues, the bound radioactivity is counted by liquid scintillation. The non-specific binding is determined in the presence of 10 μmol/l of atropine sulfate. The 50% inhibitory concentration (IC50) is determined graphically (Ref.: Watson J. D., Roeskoe W. R. and Yamamura H. I., Life Sci., 31, 2019-2029, 1982).

[2] = system: M1 central muscarinic cholinergic receptors; experiment: Antagonism of rotational behavior induced by intrastriatal injection of pirenzepine in mice; type: in vivo, mice (Swiss, CD 1, female); details: i.p., 15 minutes before pirenzepine, * p<0.05, ** p<0.01 vs control animals
Method: Pirenzepine (PZ) is a specific antagonist of M1 central muscarinic cholinergic receptors. The intrastriatal injection of PZ into mice induces rotational behavior. The antagonism of this behavior by the products according to the invention was studied. The products according to the invention are injected intraperitoneally (i.p.) after solubilization in distilled water or suspension in a 5% solution of gum arabic. The control animals receive an injection of the pure solvent under the same conditions. The animals used are female mice (Swiss, CD 1, Charles River, France) with a body weight of between 25 and 30 grams. Pirenzepine is dissolved in a phosphate buffer; the pH of the solution is 6. The products to be studied or their solvents are injected intraperitoneally, in a volume of 0.4 ml per 20 g of body weight, 15 minutes before a direct injection of pirenzepine at a dose of […] into the right striatum of the mouse, according to the method described by P. WORMS et al. in Eur. J. Pharmacol., 1986, 121, 395-401. The number of contralateral rotations (rotations in the opposite direction to the side injected) was counted for three 2-minute periods after the injection of pirenzepine: minutes 2 to 4, 8 to 10 and 13 to 15. Each treatment includes 1 to 3 doses and 10 animals per dose. For each treatment, the total number of rotations and the percentage antagonism compared with the control group are calculated.

[3] = target: T2, M2-type muscarinic cholinergic receptor (Cavia porcellus, UniProt H0VRN8); experiment: Test for affinity for the M2-type muscarinic cholinergic receptor (displacement of [3H]N-methylscopolamine); type: binding; details: homogenate of smooth muscle of guinea-pig ileum, [3H]NMS 0.3 nM, 20 min at 30° C., pH 7.5
T2 construct: on a homogenate of smooth muscle of guinea-pig ileum; from tissue; host or cells: guinea-pig ileum smooth muscle homogenate
T2 sequence (H0VRN8 1-466): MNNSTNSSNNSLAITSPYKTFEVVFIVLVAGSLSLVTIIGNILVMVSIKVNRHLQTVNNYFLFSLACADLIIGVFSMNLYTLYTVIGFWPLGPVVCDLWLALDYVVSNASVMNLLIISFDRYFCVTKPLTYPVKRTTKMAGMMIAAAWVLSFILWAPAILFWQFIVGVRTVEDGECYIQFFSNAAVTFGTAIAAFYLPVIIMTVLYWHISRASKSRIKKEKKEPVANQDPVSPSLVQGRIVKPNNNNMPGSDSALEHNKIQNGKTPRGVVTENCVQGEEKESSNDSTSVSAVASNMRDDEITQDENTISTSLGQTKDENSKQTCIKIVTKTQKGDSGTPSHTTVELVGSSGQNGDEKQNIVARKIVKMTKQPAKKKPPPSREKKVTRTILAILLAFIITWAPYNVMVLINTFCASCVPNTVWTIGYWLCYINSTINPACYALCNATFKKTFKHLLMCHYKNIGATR
Text: The M1 -type receptors are concentrated in certain areas of the brain, such as the hippocampus, the cerebral cortex and the striatum, and also in the sympathetic ganglia. These binding sites can be selectivity labeled with [^3 H] pirenzepine ([^3 H]PZ). The M2 -type receptors predominate in the heart and ileum and can be labeled with [^3 H] N-methylscopolamine ([^3 H]NMS). To determine the selectivity of the products of the invention towards the M1 and M2 sites, we studied their interaction in vitro with [^3 H]PZ and [^3 H]NMS bound with a high affinity to membranes of rat hippocampus and membranes of smooth muscle of guinea-pig ileum, respectively.
(B) Test for Affinity for the M2 -Type Muscarinic Cholinergic Receptor
The interaction with M2 -type muscarinic receptors was studied by in vitro measurement, on a homogenate of smooth muscle of guinea-pig ileum, of the displacement of tritiated N-methylscopolamine ([^3 H]NMS) from its specific binding sites. Aliquots (50 μl) of a 0.625% (w/v) homogenate of smooth muscle of guinea-pig ileum in MEPES buffer (20 mM) containing NaCl (100 mM) and MgCl2 (10 mM) (final pH: 7.5) are incubated for 20 min at 30° C. in the presence of [^3 H]NMS ([…]; final concentration: 0.3 nM) and increasing concentrations of products to be tested. The final volume is 1 ml. The reaction is stopped by centrifugation for 5 min at 15,000×g. The non-specific binding is determined in the presence of 10 μmol/l of atropine sulfate. (Ref.: Hammer R., Berrie C. P., Birdsall N. I. M., Burgen A. S. V. and Hulme E. C., Nature, 283, 90-92, 1980; Hulme E. C., Birdsall N. I. M., Burgen A. S. V. and Mettha P., Mol. Pharmacol., 14, 737-750, 1978).
Table 2 indicates the affinities of the products of the invention for M1 and M2 receptors. The results are expressed as 50% inhibitory concentrations (IC50), i.e. the concentration (in μM) which causes a 50% displacement of the tritiated ligand bound to the membrane receptors. The IC50 for displacement of ^3 H-pirenzepine represents the affinity for the M1 receptor; the IC50 for displacement of ^3 H-NMS represents the affinity for the M2 receptor.

Structure (SMILES): Cl.Cl.c1ccc2c(c1)oc1cc(NCCN3CCOCC3)nnc12 [SR 44288 A, 2-(2-Morpholinoethylamino)-9-oxa-3,4-diazafluorene dihydrochloride]
- r = (M2/M1), ratio of the IC50 values (selectivity) [1]: > 33
- IC50 [1]: 3 µM
- Pirenzepine antagonism (percentage antagonism compared with control group, rotations) ([2]; 3 mg/kg): -32%
- Pirenzepine antagonism (percentage antagonism compared with control group, rotations) ([2]; 10 mg/kg): -52%
- Pirenzepine antagonism (percentage antagonism compared with control group, rotations) ([2]; 30 mg/kg): -100%
- IC50 [3]: > 100 µM

Structure (SMILES): Cl.Cl.c1ccc2c(c1)sc1cc(NCCN3CCOCC3)nnc12 [SR 44289 A, 2-(2-Morpholinoethylamino)-9-thia-3,4-diazafluorene dihydrochloride]
- r = (M2/M1), ratio of the IC50 values (selectivity) [1]: 28
- IC50 [1]: 3.5 µM
- Pirenzepine antagonism (percentage antagonism compared with control group, rotations) ([2]; 3 mg/kg): -42%
- Pirenzepine antagonism (percentage antagonism compared with control group, rotations) ([2]; 10 mg/kg): -85%
- IC50 [3]: 100 µM

Structure (SMILES): CCN(CC)CCNc1cc2oc3ccccc3c2nn1 [SR 45040 A]
- r = (M2/M1), ratio of the IC50 values (selectivity) [1]: 64
- IC50 [1]: 0.7 µM
- Pirenzepine antagonism (percentage antagonism compared with control group, rotations) ([2]; 3 mg/kg): -47%
- IC50 [3]: 45 µM

Structure (SMILES): CCN(CC)CCCNc1cc2oc3ccccc3c2nn1 [SR 45041 A]
- r = (M2/M1), ratio of the IC50 values (selectivity) [1]: 100
- IC50 [1]: 0.1 µM
- Pirenzepine antagonism (percentage antagonism compared with control group, rotations) ([2]; 3 mg/kg): -72%
- IC50 [3]: 10 µM

Structure (SMILES): CCN1CCCC1CNc1cc2oc3ccccc3c2nn1 (centres unmarked) [SR 45042 A]
- r = (M2/M1), ratio of the IC50 values (selectivity) [1]: 500
- IC50 [1]: 0.1 µM
- Pirenzepine antagonism (percentage antagonism compared with control group, rotations) ([2]; 3 mg/kg): -52%
- IC50 [3]: 50 µM

Structure (SMILES): CCN(CC)CCNc1cc2c(nn1)-c1ccccc1SC2.Cl.Cl [SR 96056 A, 2-(2-Diethylaminoethylamino)-9,10-dihydro-9-thia-3,4-diazaphenanthrene dihydrochloride]
- r = (M2/M1), ratio of the IC50 values (selectivity) [1]: 24
- IC50 [1]: 0.15 µM
- Pirenzepine antagonism (percentage antagonism compared with control group, rotations) ([2]; 3 mg/kg): -14%
- Pirenzepine antagonism (percentage antagonism compared with control group, rotations) ([2]; 10 mg/kg): -55%
- Pirenzepine antagonism (percentage antagonism compared with control group, rotations) ([2]; 30 mg/kg): -79%
- IC50 [3]: 3.6 µM

Structure (SMILES): Cl.Cl.c1ccc2c(c1)OCc1cc(NCCN3CCOCC3)nnc1-2 [SR 96094 A, 2-(2-Morpholinoethylamino)-9,10-dihydro-9-oxa-3,4-diazaphenanthrene dihydrochloride]
- r = (M2/M1), ratio of the IC50 values (selectivity) [1]: > 27
- IC50 [1]: 3.6 µM
- Pirenzepine antagonism (percentage antagonism compared with control group, rotations) ([2]; 3 mg/kg): -8%
- Pirenzepine antagonism (percentage antagonism compared with control group, rotations) ([2]; 10 mg/kg): -20%
- Pirenzepine antagonism (percentage antagonism compared with control group, rotations) ([2]; 30 mg/kg): -85%
- IC50 [3]: > 100 µM

From patent publication US4983603A, “Tricyclic cholinergic receptor agonists” (Societe Anonyme: SANOFI, priority 1987, dated 1991)
